Three compounds from US20170273916A1, “METHODS FOR TREATING AND PREVENTING NEURODEGENERATIVE DISEASES” (priority 2016, published 2017) can be followed below.

Converted amounts (≈) assume the structure as drawn. “Also recorded” adds a separate entry of the source.

Experiment [1] deals with Aβ-induced PC12 cell model. The experiment is described as follows: Therapeutic effect on Aβ-induced PC12 AD cell model (Aβ pretreatment, then sample; CCK-8 cell viability). Type of experiment: cell-based, rat. Particulars: Aβ 24 h, then sample 24 hr; for therapeutic effect on AD cell model (inhibition of Aβ-induced damage, cell viability): FIGS. 2A-2E, concentration not given. As for the experimental part:
(§1) β-Amyloid 1-40 (Aβ) was dissolved in 0.1% (v/v) trifluoroacetic acid (TFA) in water at 10 mg/ml and stored at −20° C. as a stock solution. Af3 was diluted to 0.5 mg/ml with phosphate-buffered saline solution (PBS, without Ca2+) and aggregate at 25° C. for 48 hr before use. To investigate the therapeutic effect of extracts (ANCA, ANCA-D) and compounds (Antrocamol LT1, LT2, LT3) on Alzheimer disease (AD) cell model in vitro, cultures were pretreated with Aβ for 24 h and then exposed to freshly prepared extracts (ANCA, ANCA-D) and compounds (Antrocamol LT1, LT2, LT3) for 24 hr before cell viability measurements. In contrast, to investigate the prophylactic effect of extracts (ANCA, ANCA-D) and compounds (Antrocamol LT1, LT2, LT3) on AD cell model, cultures were pretreated with extracts (ANCA, ANCA-D) and compounds (Antrocamol LT1, LT2, LT3) for 24 h and then exposure to aggregated Aβ for 24 h before cell viability measurements. The cell viability was estimated by below formulation:
(§2) Cell viability (%)=(Sample-Blank)/(Control-Blank)×100%

Experiment [2] has as its system Aβ-induced PC12 cell model. The experiment is described as follows: Prophylactic effect on Aβ-induced PC12 AD cell model (sample pretreatment, then aggregated Aβ; CCK-8 cell viability). As to conditions: sample 24 h, then aggregated Aβ 24 h; for prophylactic effect on AD cell model (preventing Aβ-induced neuronal damage, cell viability): FIGS. 3A-3E, concentration not given. Type of experiment: cell-based, rat. The method, then: as §1, §2

Another experiment relates to NGF-induced PC12 cells. The experiment is described as follows: Viability of NGF-induced PC12 cells treated with extracts and compounds (CCK-8 assay). The experiment is classed as cell-based. Particulars: Rattus norvegicus, PC-12, 24 hr incubation, CCK-8, FIGS. 1A-1E, read-out: IC50 (cell viability). The method, then: PC12 cells were cultured in RPMI 1640 medium (5% fetal bovine serum, 10% heat-inactivated horse serum, 2 mM glutamine, 50 U/mL penicillin, […] streptomycin), at 37° C., 5% CO2, subculture twice a week.
PC12 cells need to be cultured in medium containing Nerve growth factor (NGF) 2.5S, (100 ng/mL) in advance for NGF-induced neuronal differentiation.
Cell Counting Kit-8(CCK-8) allows sensitive colorimetric assays for the determination of cell viability in cell proliferation and cytotoxicity assays. Dojindo's highly water-soluble tetrazolium salt, WST-8, is reduced by dehydrogenase activities in cells to give a yellow-color formazan dye, which is soluble in the tissue culture media. The amount of the formazan dye, generated by the activities of dehydrogenases in cells, is directly proportional to the number of living cells. The detection sensitivity of CCK-8 is higher than the other tetrazolium salts such as MTT, XTT, MTS or WST-1.
To optimize the exemplary extracts (ANCA, ANCA-D) and compounds (Antrocamol LT1, LT2, LT3) concentration for NGF-induced PC12 neural model, titration experiments were performed to determine the IC50 values of extracts and compounds. 5 x 10^4 NGF-induced PC12 cells were cultured in 96-well dish for 24 hr. Then the cells were cultured in medium with 1% fetal bovine serum, 2% heat-inactivated horse serum, 2 mM glutamine, 50 U/mL penicillin, […] streptomycin RPMI 1640 medium, then various concentrations of extracts [ANCA, ANCA-D (0.064, 0.32, 1.6, 8, 40, 200 μg/mL)] and compounds [Antrocamol LT1, LT2, LT3 (0.032, 0.16, 0.8, 4, 20, 100 μg/mL) were added individually and incubated for 24 hr. After treatment, the CCK-8 solution was added to each well of plates and incubates the plates for 4 hr in the incubator. The concentration of the formazan product was determined spectrophotometrically at an absorbance wavelength 450 nm and cell viability was expressed as a percentage of the corresponding control.
(In general: Tetrazolium dyes change colour on reduction, which living cells bring about.)

For orientation: IC50 means the concentration that inhibits the measured activity by half.

As to `COC1=C(OC)[C@H](O)[C@H](C/C=C(\C)CC/C=C(\C)CC(O)C=C(C)C)[C@@H](C)C1=O` (stereo partly shown) [LT1, 4-hydroxy-5-[9-hydroxy-3,7,11-trimethyldodeca-2,6,10-trienyl]-2,3-dimethoxy-6-methyl-cyclohex-2-enone], the “inhibitory effect on Aβ-induced damage (therapeutic)” value (from here on “inhibitory effect”) is reported as “weak” in experiment [1] (25 μg/mL), “significant inhibitory effect” in experiment [1] (50 μg/mL) and “significant inhibitory effect” in experiment [1] (100 μg/mL). The “therapeutic effect on AD cell model (inhibition of Aβ-induced damage, cell viability)” value in experiment [1] is “significantly inhibited Aβ-induced damage and improved the cell viability”. For the same compound, the “prophylactic effect compared with extracts” value in experiment [2] (100 μg/mL, 50 μg/mL, 25 μg/mL) is reported as “better prophylactic effect than extracts”. Besides, the “prophylactic effect on AD cell model (preventing Aβ-induced neuronal damage, cell viability)” value (“prophylactic effect on AD cell model” below) in experiment [2] is given as “significant impact in preventing”. Moreover, the IC50 with NGF-induced PC12 cells was found to be 178 µg/mL (≈ 439 µM).

For `COC1=C(OC)[C@H](OC(C)=O)[C@H](C/C=C(\C)CC/C=C(\C)CC(O)C=C(C)C)[C@@H](C)C1=O` (stereo partly shown) [LT2, 4-acetoxy-5-[9-hydroxy-3,7,11-trimethyldodeca-2,6,10-trienyl]-2,3-dimethoxy-6-methyl-cyclohex-2-enone], the “inhibitory effect” value in experiment [1] (25 μg/mL) is “weak”; in experiment [1] (50 μg/mL) it was “significant inhibitory effect”; in experiment [1] (100 μg/mL), “significant inhibitory effect”. Moreover, the “therapeutic effect on AD cell model (inhibition of Aβ-induced damage, cell viability)” value in experiment [1] is “significantly inhibited Aβ-induced damage and improved the cell viability”. In experiment [2], the “prophylactic effect on AD cell model” value was “significant impact in preventing; also recorded: weak preventing effect”. In the experiment with NGF-induced PC12 cells, the IC50 was 168 µg/mL (≈ 376 µM).

As to `COC1=C(OC)[C@H](O)[C@H](C/C=C(\C)CC/C=C(\C)C/C=C/C(C)(C)O)[C@@H](C)C1=O` [LT3, (4R,5R,6R)-4-hydroxy-5-[(2E,6E,9E)-11-hydroxy-3,7,11-trimethyldodeca-2,6,9-trienyl]-2,3-dimethoxy-6-methylcyclohex-2-enone], the “inhibitory effect” value in experiment [1] (25 μg/mL) is “weak”; in experiment [1] (50 μg/mL), “significant inhibitory effect”; in experiment [1] (100 μg/mL) it was “significant inhibitory effect”. Besides, the “therapeutic effect on AD cell model (inhibition of Aβ-induced damage, cell viability)” value in experiment [1] is “significantly inhibited Aβ-induced damage and improved the cell viability”. Besides, the “prophylactic effect on AD cell model” value in experiment [2] is listed as “significant impact in preventing; also recorded: weak preventing effect”. For the same compound, the IC50 in the experiment with NGF-induced PC12 cells turned out to be 106 µg/mL (≈ 259 µM).
